Test results published in US20230248626A1, “Compositions Comprising (Bio)-Alkanediols” (Symrise AG, priority 0001, published 2023).
Converted amounts (≈) assume the structure as drawn.

Columns and labels:
Type in all cases: cell-based
Candida albicans = test: MIC test (growth inhibition, 96 well plates, OD); settings: read-out: Minimum Inhibitory Concentration (MIC)
Procedure: (§1) The MIC test is a test on growth inhibition. Estimation of Minimum Inhibitory Concentration (MIC) is executed in 96 well plates. Through the comparison of bacterial growth with positive and negative controls via optical density (OD), different concentrations of given test substances are evaluated.
(§2) Bacteria are cultivated under adjusted conditions based on information of the German Collection of Microorganisms and Cell Cultures (DSMZ) and stored in 50% Glycerol prior to use. Afterwards, the following method was applied: Adding growth medium (according to microorganism) to each well of the microplate. Adding the test-substances in different concentrations, positive controls (water controls only with medium) and negative controls (benchmarks according to organism). Adding the microorganism in a concentration of 10^6 CFU/ml (CFU=colony forming units). Incubation of the microplates at appropriate conditions.
(§3) According to resulting growth, substance concentrations are labelled either as inhibiting or not and MIC is defined as the lowest concentration where a complete growth inhibition is visible. Experiments at concentration limits (highest concentration labelled as growth and lowest concentration labelled as inhibiting) are performed at least twice.

Corynebacterium jeikeium = test: MIC test (growth inhibition, 96 well plates, OD); settings: read-out: Minimum Inhibitory Concentration (MIC)
Procedure: as §1, §2, §3

Escherichia coli = test: MIC test (growth inhibition, 96 well plates, OD); settings: read-out: Minimum Inhibitory Concentration (MIC)
Procedure: as §1, §2, §3

Propionibacterium acnes = test: MIC test (growth inhibition, 96 well plates, OD); settings: Cutibacterium acnes; read-out: Minimum Inhibitory Concentration (MIC)
Procedure: as §1, §2, §3

Staphylococcus aureus = test: MIC test (growth inhibition, 96 well plates, OD); settings: read-out: Minimum Inhibitory Concentration (MIC)
Procedure: as §1, §2, §3

Staphylococcus hominis = test: MIC test (growth inhibition, 96 well plates, OD); settings: read-out: Minimum Inhibitory Concentration (MIC)
Procedure: as §1, §2, §3

[1] = test system: Aspergillus brasiliensis (AB); test: Preservation efficacy test (PET), European Pharmacopoeia 5.1.3
Procedure: (§4) The preservation efficacy test (PET) was performed in accordance with European Pharmacopoeia § 5.1.3: The test is a reference European Pharmacopoeia method, that is to be used to evaluate the preservation system of a cosmetic or pharmaceutical preparation. The test consists of challenging the preparation under test, with prescribed inoculums of suitable microorganisms. The preservation porperties of the preparation are adequate if, in the conditions of the test, there is a significant fall or no increase, as appropriate, in the number of microorganisms in the inoculated preparations after the time prescribed.
(§5) The test microorganisms which were used, are the following:
(§6) Pseudomonas aeruginosa (PA) (bacterium); Staphylococcus aureus (SA) (bacterium); Escherichia coli (EC) (bacterium); Candida albicans (CA) (yeast); and Aspergillus brasiliensis (AB) (fungus).

Candida albicans (CA) = test: as above
Procedure: as §4, §5, §6

Escherichia coli (EC) = test: as above
Procedure: as §4, §5, §6

[2] = test system: Pseudomonas aeruginosa (PA); test: as above
Procedure: as §4, §5, §6

[3] = test system: Staphylococcus aureus (SA); test: as above
Procedure: as §4, §5, §6

- MIC (Candida albicans): 5000 µg/mL (≈ 37.8 mM)
- MIC (Corynebacterium jeikeium): 7500 µg/mL (≈ 56.7 mM)
- MIC (Escherichia coli): 5000 µg/mL (≈ 37.8 mM)
- MIC (Propionibacterium acnes): > 5000 µg/mL
- MIC (Staphylococcus aureus): 10000 µg/mL (≈ 75.6 mM)
- MIC (Staphylococcus hominis): 10000 µg/mL (≈ 75.6 mM)
SMILES: CCCCCC(O)CO (stereo not drawn) [1,2-heptanediol]
- number of microorganisms after 2 days ([1]; 0.1% in shampoo): 240,000
- number of microorganisms after 7 days ([1]; 0.1% in shampoo): 220,000
- number of microorganisms after 14 days ([1]; 0.1% in shampoo): 150,000
- number of microorganisms after 28 days ([1]; 0.1% in shampoo): 19,000
- number of microorganisms after 2 days ([1]; 0.2% in o/w emulsion): 2,200,000
- number of microorganisms after 7 days ([1]; 0.2% in o/w emulsion): 2,000,000
- number of microorganisms after 14 days ([1]; 0.2% in o/w emulsion): 2,500,000
- number of microorganisms after 28 days ([1]; 0.2% in o/w emulsion): 2,100,000
- number of microorganisms after 2 days ([1]; 0.4% in o/w emulsion): 1,000,000
- number of microorganisms after 7 days ([1]; 0.4% in o/w emulsion): 180,000
- number of microorganisms after 14 days ([1]; 0.4% in o/w emulsion): 150,000
- number of microorganisms after 28 days ([1]; 0.4% in o/w emulsion): 1
- number of microorganisms after 2 days (Candida albicans (CA); 0.1% in shampoo): 220,000
- number of microorganisms after 7 days (Candida albicans (CA); 0.1% in shampoo): 62,000
- number of microorganisms after 14 days (Candida albicans (CA); 0.1% in shampoo): 8,100
- number of microorganisms after 28 days (Candida albicans (CA); 0.1% in shampoo): 1
- number of microorganisms after 2 days (Candida albicans (CA); 0.2% in o/w emulsion): 1,300,000
- number of microorganisms after 7 days (Candida albicans (CA); 0.2% in o/w emulsion): 1,600,000
- number of microorganisms after 14 days (Candida albicans (CA); 0.2% in o/w emulsion): 1,200,000
- number of microorganisms after 28 days (Candida albicans (CA); 0.2% in o/w emulsion): 620,000
- number of microorganisms after 2 days (Candida albicans (CA); 0.4% in o/w emulsion): 71,000
- number of microorganisms after 7 days (Candida albicans (CA); 0.4% in o/w emulsion): 2,800
- number of microorganisms after 14 days (Candida albicans (CA); 0.4% in o/w emulsion): 1
- number of microorganisms after 28 days (Candida albicans (CA); 0.4% in o/w emulsion): 1
- number of microorganisms after 2 days (Escherichia coli (EC); 0.1% in shampoo): 2,100,000
- number of microorganisms after 7 days (Escherichia coli (EC); 0.1% in shampoo): 1,400,000
- number of microorganisms after 14 days (Escherichia coli (EC); 0.1% in shampoo): 200,000
- number of microorganisms after 28 days (Escherichia coli (EC); 0.1% in shampoo): 1
- number of microorganisms after 2 days (Escherichia coli (EC); 0.2% in o/w emulsion): 38,000
- number of microorganisms after 7 days (Escherichia coli (EC); 0.2% in o/w emulsion): 73
- number of microorganisms after 14 days (Escherichia coli (EC); 0.2% in o/w emulsion): 1
- number of microorganisms after 28 days (Escherichia coli (EC); 0.2% in o/w emulsion): 1
- number of microorganisms after 2 days (Escherichia coli (EC); 0.4% in o/w emulsion): 23,000
- number of microorganisms after 7 days (Escherichia coli (EC); 0.4% in o/w emulsion): 4,100
- number of microorganisms after 14 days (Escherichia coli (EC); 0.4% in o/w emulsion): 1
- number of microorganisms after 28 days (Escherichia coli (EC); 0.4% in o/w emulsion): 1
- number of microorganisms after 2 days ([2]; 0.1% in shampoo): 2,500
- number of microorganisms after 7 days ([2]; 0.1% in shampoo): 10
- number of microorganisms after 14 days ([2]; 0.1% in shampoo): 1
- number of microorganisms after 28 days ([2]; 0.1% in shampoo): 1
- number of microorganisms after 2 days ([2]; 0.2% in o/w emulsion): 1
- number of microorganisms after 7 days ([2]; 0.2% in o/w emulsion): 1
- number of microorganisms after 14 days ([2]; 0.2% in o/w emulsion): 1
- number of microorganisms after 28 days ([2]; 0.2% in o/w emulsion): 1
- number of microorganisms after 2 days ([2]; 0.4% in o/w emulsion): 1
- number of microorganisms after 7 days ([2]; 0.4% in o/w emulsion): 1
- number of microorganisms after 14 days ([2]; 0.4% in o/w emulsion): 1
- number of microorganisms after 28 days ([2]; 0.4% in o/w emulsion): 1
- number of microorganisms after 2 days ([3]; 0.1% in shampoo): 10
- number of microorganisms after 7 days ([3]; 0.1% in shampoo): 10
- number of microorganisms after 14 days ([3]; 0.1% in shampoo): 1
- number of microorganisms after 28 days ([3]; 0.1% in shampoo): 1
- number of microorganisms after 2 days ([3]; 0.2% in o/w emulsion): 95,000
- number of microorganisms after 7 days ([3]; 0.2% in o/w emulsion): 1
- number of microorganisms after 14 days ([3]; 0.2% in o/w emulsion): 1
- number of microorganisms after 28 days ([3]; 0.2% in o/w emulsion): 1
- number of microorganisms after 2 days ([3]; 0.4% in o/w emulsion): 15,000
- number of microorganisms after 7 days ([3]; 0.4% in o/w emulsion): 2,600
- number of microorganisms after 14 days ([3]; 0.4% in o/w emulsion): 1
- number of microorganisms after 28 days ([3]; 0.4% in o/w emulsion): 1
